Columns and labels:
Parameters in all cases: dose 5 mg/kg, route intravenous
Settings in all cases: in vivo
[1] = test system: Rattus norvegicus; test: Biodistribution in albino Wistar Hannover rat myocardium at 5 mg/kg, iv after 5 mins by autoradiography analysis; format: ADME, organism-based
[2] = test system: Liver; test: Half life in albino Wistar Hannover rat liver at 5 mg/kg, iv by autoradiography analysis; format: ADME, organism-based
[3] = test system: Lung; test: Biodistribution in albino Wistar Hannover rat lung at 5 mg/kg, iv after 5 mins by autoradiography analysis; format: ADME, organism-based
[4] = test system: Rattus norvegicus; test: Biodistribution in albino Wistar Hannover rat tongue at 5 mg/kg, iv after 4 hrs by autoradiography analysis; format: ADME, organism-based
[5] = test system: Rattus norvegicus; test: Biodistribution in albino Wistar Hannover rat muscle cranial at 5 mg/kg, iv after 4 hrs by autoradiography analysis; format: ADME, organism-based, Muscle tissue
[6] = test system: Lung; test: Biodistribution in albino Wistar Hannover rat lung at 5 mg/kg, iv after 4 hrs by autoradiography analysis; format: ADME, organism-based
[7] = test system: Rattus norvegicus; test: Biodistribution in albino Wistar Hannover rat adrenal cortex at 5 mg/kg, iv after 5 mins by autoradiography analysis; format: ADME, organism-based
[8] = test system: Rattus norvegicus; test: Biodistribution in albino Wistar Hannover rat muscle cranial at 5 mg/kg, iv after 5 mins by autoradiography analysis; format: ADME, organism-based, Muscle tissue
[9] = test system: Rattus norvegicus; test: Biodistribution in albino Wistar Hannover rat epididymis at 5 mg/kg, iv after 24 hrs by autoradiography analysis; format: ADME, organism-based
[10] = test system: Rattus norvegicus; test: Biodistribution in albino Wistar Hannover rat adipose tissue at 5 mg/kg, iv after 5 mins by autoradiography analysis; format: ADME, organism-based
[11] = test system: Pituitary gland; test: Biodistribution in albino Wistar Hannover rat pituitary at 5 mg/kg, iv after 4 hrs by autoradiography analysis; format: ADME, organism-based
[12] = Drug uptake in albino Wistar Hannover rat epididymis at 5 mg/kg, iv by LESA-MS analysis; format: ADME, organism-based
[13] = Drug uptake in albino Wistar Hannover rat white fat at 5 mg/kg, iv by LESA-MS analysis; format: ADME, organism-based, White adipose tissue
[14] = test system: Harderian gland; test: Biodistribution in albino Wistar Hannover rat harderian gland at 5 mg/kg, iv after 5 mins by autoradiography analysis; format: ADME, organism-based
[15] = test system: Blood; test: Biodistribution in albino Wistar Hannover rat whole blood at 5 mg/kg, iv after 24 hrs by liquid scintillation counting; format: ADME, organism-based
[16] = test system: Rattus norvegicus; test: Biodistribution in albino Wistar Hannover rat adrenal cortex at 5 mg/kg, iv after 24 hrs by autoradiography analysis; format: ADME, organism-based
[17] = test system: Thymus; test: Biodistribution in albino Wistar Hannover rat thymus at 5 mg/kg, iv after 4 hrs by autoradiography analysis; format: ADME, organism-based
[18] = test system: Blood; test: Biodistribution in albino Wistar Hannover rat whole blood at 5 mg/kg, iv after 4 hrs by liquid scintillation counting; format: ADME, organism-based
[19] = test system: Rattus norvegicus; test: Biodistribution in albino Wistar Hannover rat myocardium at 5 mg/kg, iv after 4 hrs by autoradiography analysis; format: ADME, organism-based
[20] = test system: Thymus; test: Biodistribution in albino Wistar Hannover rat thymus at 5 mg/kg, iv after 5 mins by autoradiography analysis; format: ADME, organism-based
[21] = test system: Spleen; test: Biodistribution in albino Wistar Hannover rat spleen at 5 mg/kg, iv after 5 mins by autoradiography analysis; format: ADME, organism-based
[22] = test system: Rattus norvegicus; test: Biodistribution in albino Wistar Hannover rat myocardium at 5 mg/kg, iv after 24 hrs by autoradiography analysis; format: ADME, organism-based
[23] = test system: Spleen; test: Biodistribution in albino Wistar Hannover rat spleen at 5 mg/kg, iv after 24 hrs by autoradiography analysis; format: ADME, organism-based
[24] = test system: Rattus norvegicus; test: Biodistribution in albino Wistar Hannover rat renal cortex at 5 mg/kg, iv after 24 hrs by autoradiography analysis; format: ADME, organism-based
[25] = Drug uptake in albino Wistar Hannover rat harder's gland at 5 mg/kg, iv by LESA-MS analysis; format: ADME, organism-based, Harderian gland
[26] = test system: Rattus norvegicus; test: Biodistribution in albino Wistar Hannover rat epididymis at 5 mg/kg, iv after 4 hrs by autoradiography analysis; format: ADME, organism-based
[27] = Half life in albino Wistar Hannover rat muscle caudal at 5 mg/kg, iv by autoradiography analysis; format: ADME, organism-based, Muscle tissue
[28] = test system: Thymus; test: Drug uptake in albino Wistar Hannover rat thymus at 5 mg/kg, iv by LESA-MS analysis; format: ADME, organism-based
[29] = test system: Plasma; test: Half life in albino Wistar Hannover rat plasma at 5 mg/kg, iv by liquid scintillation counting; format: ADME, organism-based
[30] = test system: Rattus norvegicus; test: Biodistribution in albino Wistar Hannover rat renal cortex at 5 mg/kg, iv after 4 hrs by autoradiography analysis; format: ADME, organism-based
[31] = test system: Spleen; test: Biodistribution in albino Wistar Hannover rat spleen at 5 mg/kg, iv after 4 hrs by autoradiography analysis; format: ADME, organism-based
[32] = test system: Liver; test: Drug uptake in albino Wistar Hannover rat liver at 5 mg/kg, iv by LESA-MS analysis; format: ADME, organism-based
[33] = test system: Rattus norvegicus; test: Biodistribution in albino Wistar Hannover rat salivary gland at 5 mg/kg, iv after 24 hrs by autoradiography analysis; format: ADME, organism-based
[34] = test system: Blood; test: Half life in albino Wistar Hannover rat whole blood at 5 mg/kg, iv by liquid scintillation counting; format: ADME, organism-based
[35] = test system: Pituitary gland; test: Drug uptake in albino Wistar Hannover rat pituitary at 5 mg/kg, iv by LESA-MS analysis; format: ADME, organism-based
[36] = Drug uptake in albino Wistar Hannover rat salivary gland at 5 mg/kg, iv by LESA-MS analysis; format: ADME, organism-based
[37] = test system: Rattus norvegicus; test: Biodistribution in albino Wistar Hannover rat muscle caudal at 5 mg/kg, iv after 5 mins by autoradiography analysis; format: ADME, organism-based, Muscle tissue
[38] = test system: Rattus norvegicus; test: Biodistribution in albino Wistar Hannover rat muscle caudal at 5 mg/kg, iv after 4 hrs by autoradiography analysis; format: ADME, organism-based, Muscle tissue
[39] = test system: Rattus norvegicus; test: Biodistribution in albino Wistar Hannover rat testis at 5 mg/kg, iv after 24 hrs by autoradiography analysis; format: ADME, organism-based
[40] = test system: Blood; test: Biodistribution in albino Wistar Hannover rat whole blood at 5 mg/kg, iv after 5 mins by liquid scintillation counting; format: ADME, organism-based
[41] = test system: Pituitary gland; test: Biodistribution in albino Wistar Hannover rat pituitary at 5 mg/kg, iv after 24 hrs by autoradiography analysis; format: ADME, organism-based
[42] = test system: Rattus norvegicus; test: Biodistribution in albino Wistar Hannover rat bone marrow at 5 mg/kg, iv after 4 hrs by autoradiography analysis; format: ADME, organism-based

- Drug uptake [1]: 13504 ngequiv/g
- t1/2 [2]: 31.2 h
- Drug uptake [3]: 24769 ngequiv/g
- Drug uptake [4]: 3786 ngequiv/g
- Drug uptake [5]: 2972 ngequiv/g
- Drug uptake [6]: 10036 ngequiv/g
- Drug uptake [7]: 21006 ngequiv/g
- Drug uptake [8]: 8437 ngequiv/g
- Drug uptake [9]: 1043 ngequiv/g
- Drug uptake [10]: 467 ngequiv/g
- Drug uptake [11]: 7747 ngequiv/g
- Drug uptake [12]: 62.1%
- Drug uptake [13]: 100%
- Drug uptake [14]: 4132 ngequiv/g
- Drug uptake [15]: 122 ngequiv/g
- Drug uptake [16]: 3447 ngequiv/g
- Drug uptake [17]: 3372 ngequiv/g
- Drug uptake [18]: 361 ngequiv/g
- Drug uptake [19]: 4240 ngequiv/g
- Drug uptake [20]: 3243 ngequiv/g
- Drug uptake [21]: 7308 ngequiv/g
- Drug uptake [22]: 1207 ngequiv/g
- Drug uptake [23]: 3306 ngequiv/g
- Drug uptake [24]: 2627 ngequiv/g
- Drug uptake [25]: 79.9%
- Drug uptake [26]: 2290 ngequiv/g
- t1/2 [27]: 19.7 h
- Drug uptake [28]: 67.2%
- t1/2 [29]: 21.9 h
- Drug uptake [30]: 8020 ngequiv/g
- Drug uptake [31]: 10694 ngequiv/g
- Drug uptake [32]: 12.9%
- Drug uptake [33]: 1877 ngequiv/g
- t1/2 [34]: 38.6 h
- Drug uptake [35]: 47.8%
- Drug uptake [36]: 42.5%
- Drug uptake [37]: 6936 ngequiv/g
- Drug uptake [38]: 2606 ngequiv/g
- Drug uptake [39]: 633 ngequiv/g
- Drug uptake [40]: 830 ngequiv/g
- Drug uptake [41]: 2350 ngequiv/g
- Drug uptake [42]: 3910 ngequiv/g
SMILES: CN(CCc1cc(C(F)(F)F)cc(C(F)(F)F)c1)C(=O)[C@H](c1ccccc1)N1CCN(CC2CC2)CC1.Cl.O

— ChEMBL document CHEMBL3525916, “Investigation of figopitant and its metabolites in rat tissue by combining whole-body autoradiography with liquid extraction surface analysis mass spectrometry” (Drug Metab Dispos, 2012)
